The source made the active and inactive calls. The calls are words filed in the database; no cut-off is given here.
What was measured:
Rattus norvegicus [1] = assay: Antiinflammatory activity in LPS-stimulated rat assessed as total number of leukocytes in bronchoalveolar lavage fluid at 3 mg/kg, po administered 1 hr before LPS challenge measured after 3 hrs; assay type: functional, Lung
[2] = molecular target: 3',5'-cyclic-AMP phosphodiesterase 4B (Homo sapiens, UniProt Q07343); assay: Inhibition of core catalytic domains PDE4B (unknown origin)
3',5'-cyclic-AMP phosphodiesterase 4B, sequence (Q07343 whole entry, the tested form may be a part): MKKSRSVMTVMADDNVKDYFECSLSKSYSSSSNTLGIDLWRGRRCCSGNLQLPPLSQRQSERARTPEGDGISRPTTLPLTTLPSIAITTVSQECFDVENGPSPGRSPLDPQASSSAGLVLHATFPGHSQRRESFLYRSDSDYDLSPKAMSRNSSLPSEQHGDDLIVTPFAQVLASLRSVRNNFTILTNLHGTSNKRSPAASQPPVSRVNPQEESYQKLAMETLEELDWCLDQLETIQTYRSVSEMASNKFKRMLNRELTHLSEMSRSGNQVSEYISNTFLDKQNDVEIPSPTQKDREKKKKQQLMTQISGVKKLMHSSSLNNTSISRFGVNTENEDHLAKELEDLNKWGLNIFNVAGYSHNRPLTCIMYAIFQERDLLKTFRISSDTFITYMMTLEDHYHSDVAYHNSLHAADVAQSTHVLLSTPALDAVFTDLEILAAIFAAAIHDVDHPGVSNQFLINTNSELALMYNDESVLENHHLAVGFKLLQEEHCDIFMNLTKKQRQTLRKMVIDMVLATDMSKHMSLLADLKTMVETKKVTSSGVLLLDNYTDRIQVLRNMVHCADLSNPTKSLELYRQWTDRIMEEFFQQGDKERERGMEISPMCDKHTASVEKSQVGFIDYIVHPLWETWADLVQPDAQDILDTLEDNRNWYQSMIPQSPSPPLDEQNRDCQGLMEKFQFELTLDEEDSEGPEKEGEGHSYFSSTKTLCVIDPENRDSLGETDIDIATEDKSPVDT

[3] = molecular target: T1, cGMP-inhibited 3',5'-cyclic phosphodiesterase 3A (Homo sapiens, UniProt Q14432); assay: Inhibition of core catalytic domains PDE3A (unknown origin) at 100 uM
T1 sequence (Q14432 whole entry, the tested form may be a part): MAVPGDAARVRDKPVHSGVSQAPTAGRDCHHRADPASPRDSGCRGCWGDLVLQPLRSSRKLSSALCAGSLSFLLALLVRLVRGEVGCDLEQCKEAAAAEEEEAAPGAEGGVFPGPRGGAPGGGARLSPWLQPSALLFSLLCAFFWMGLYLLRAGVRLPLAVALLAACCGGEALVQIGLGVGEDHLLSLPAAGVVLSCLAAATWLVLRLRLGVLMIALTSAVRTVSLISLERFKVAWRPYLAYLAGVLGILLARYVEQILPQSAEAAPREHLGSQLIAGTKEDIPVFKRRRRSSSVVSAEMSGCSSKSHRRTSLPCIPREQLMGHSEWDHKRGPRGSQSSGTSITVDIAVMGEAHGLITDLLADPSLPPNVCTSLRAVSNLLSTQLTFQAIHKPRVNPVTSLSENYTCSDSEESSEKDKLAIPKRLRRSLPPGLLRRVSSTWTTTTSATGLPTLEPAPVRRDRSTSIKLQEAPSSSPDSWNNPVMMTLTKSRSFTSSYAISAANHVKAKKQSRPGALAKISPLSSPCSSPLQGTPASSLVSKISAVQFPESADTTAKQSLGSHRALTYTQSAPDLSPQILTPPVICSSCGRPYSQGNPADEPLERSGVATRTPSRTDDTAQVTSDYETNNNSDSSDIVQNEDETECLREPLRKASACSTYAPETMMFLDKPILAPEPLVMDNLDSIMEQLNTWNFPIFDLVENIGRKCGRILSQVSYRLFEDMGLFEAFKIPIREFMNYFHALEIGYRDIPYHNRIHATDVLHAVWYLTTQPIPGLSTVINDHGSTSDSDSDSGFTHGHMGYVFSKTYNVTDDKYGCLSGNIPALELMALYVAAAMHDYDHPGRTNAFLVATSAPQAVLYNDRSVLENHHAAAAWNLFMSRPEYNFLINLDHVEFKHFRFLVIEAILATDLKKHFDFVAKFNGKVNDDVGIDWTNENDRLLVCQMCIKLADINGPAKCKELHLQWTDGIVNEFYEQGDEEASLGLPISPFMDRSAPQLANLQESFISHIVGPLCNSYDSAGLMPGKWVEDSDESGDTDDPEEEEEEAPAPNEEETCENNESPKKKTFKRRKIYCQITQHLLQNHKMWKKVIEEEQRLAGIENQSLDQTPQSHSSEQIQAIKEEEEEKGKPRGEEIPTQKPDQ

[4] = molecular target: T1, cGMP-inhibited 3',5'-cyclic phosphodiesterase 3A; assay: Inhibition of core catalytic domains PDE3A (unknown origin)
Rattus norvegicus [5] = assay: Antiinflammatory activity in LPS-stimulated rat assessed as total number of leukocytes in bronchoalveolar lavage fluid at 1 mg/kg, po administered 1 hr before LPS challenge measured after 3 hrs; assay type: functional, Lung
Rattus norvegicus [6] = assay: Antiinflammatory activity in LPS-stimulated rat assessed as total number of leukocytes in bronchoalveolar lavage fluid at 10 mg/kg, po administered 1 hr before LPS challenge measured after 3 hrs; assay type: functional, Lung

Structure (SMILES)	Activity (Rattus norvegicus [1]) [%]	IC50 [2] [nM]	inhibition [3]	IC50 [4] [nM]	Activity (Rattus norvegicus [5]) [%]	Activity (Rattus norvegicus [6]) [%]
COc1ccc(/C=C/c2c(Cl)cncc2Cl)c2cc(C(F)(F)F)nn12	39	5.5	inactive	–	–	–
COc1ccc(C(O)Cc2ccncc2)c2cc(C(F)(F)F)nn12 (centres undefined)	–	750	inactive	–	–	–
COCc1ccc(C(=O)Nc2c(Cl)cncc2Cl)c2cc(C(F)(F)F)nn12	31	4.5	inactive	–	–	–
CCc1cc2c(C(=O)Nc3c(Cl)cncc3Cl)ccc(OC)n2n1	53	7	–	> 100000	–	–
COc1cccc2c(C(=O)Nc3c(Cl)c[n+]([O-])cc3Cl)c(C(F)(F)F)nn12	–	16600	inactive	–	–	–
COc1ccc(C(=O)Nc2c(Cl)cncc2Cl)c2cc(C(F)(F)F)nn12	–	0.27	inactive	–	60	–
COc1ccc(/C=C/c2ccncc2)c2cc(C(F)(F)F)nn12	57	15	–	67100	–	–
COc1ccc(C(=O)Nc2c(Cl)cncc2Cl)c2cc(C3CC3)nn12	71	0.51	–	> 100000	–	–
COc1ccc(C(=O)Nc2c(Cl)cncc2Cl)c2cc(C#N)nn12	66	4.1	–	> 100000	–	–
COCc1cc2c(C(=O)Nc3c(Cl)c[n+]([O-])cc3Cl)ccc(OC)n2n1	18	50	inactive	–	–	–
CC(O)c1ccc(C(=O)Nc2c(Cl)cncc2Cl)c2cc(C(F)(F)F)nn12 (centres undefined)	59	8	–	> 100000	–	–
COc1ccc(NC(=O)c2c(Cl)cncc2Cl)c2cc(C(F)(F)F)nn12	–	240	inactive	–	–	–
COc1ccc(C(=O)Nc2c(Cl)cncc2Cl)c2cc(C(=O)O)nn12	–	550	inactive	–	–	–
COc1ccc(C(=O)Nc2c(Cl)cncc2Cl)c2cc(C=O)nn12	64	9.8	inactive	–	–	–
O=C(Nc1c(Cl)cncc1Cl)c1ccc(OC(F)F)c(OCC2CC2)c1 [ROFLUMILAST]	–	–	–	> 100000	–	59
COc1ccc(C(=O)Nc2c(Cl)cncc2Cl)c2cc(/C=N/O)nn12	41	5.1	–	> 100000	–	–
CSc1ccc(C(=O)Nc2c(Cl)cncc2Cl)c2cc(C(F)(F)F)nn12	52	0.11	–	> 100000	–	–
COc1ccc(CCc2ccncc2)c2cc(C(F)(F)F)nn12	55	4.9	inactive	–	–	–
COc1ccc(C(=O)Nc2c(Cl)c[n+]([O-])cc2Cl)c2cc(C#N)nn12	61	22	inactive	–	–	–
COc1ccc(C(=O)Nc2c(Cl)cncc2Cl)c2ccnn12	0	39	–	> 100000	–	–
COc1ccc(C(=O)Nc2c(Cl)c[n+]([O-])cc2Cl)c2ccnn12	57	2.7	inactive	–	–	–
COc1ccc(C(=O)Nc2c(Cl)c[n+]([O-])cc2Cl)c2cc(C(C)C)nn12	–	10	inactive	–	–	63

Structure (SMILES)	Activity (Rattus norvegicus [1]) [%]	IC50 [2] [nM]	inhibition [3]	IC50 [4] [nM]	Activity (Rattus norvegicus [5]) [%]	Activity (Rattus norvegicus [6]) [%]
COc1ccc(C(=O)Cc2c(Cl)cncc2Cl)c2cc(C(F)(F)F)nn12	–	2.9	inactive	–	–	87
COc1ccc(CNc2c(Cl)cncc2Cl)c2cc(C(F)(F)F)nn12	–	150	–	71400	–	–
O=C(Nc1c(Cl)cncc1Cl)c1ccc(CO)n2nc(C(F)(F)F)cc12	26	31	inactive	–	–	–
COc1ccc(C(=O)Nc2c(Cl)c[n+]([O-])cc2Cl)c2cc(C(F)(F)F)nn12	77	1.5	inactive	–	–	–
COc1ccc(C(O)Cc2c(Cl)cncc2Cl)c2cc(C(F)(F)F)nn12 (centres undefined)	–	39	inactive	–	–	–
COc1ccc(C(=O)Cc2ccncc2)c2cc(C(F)(F)F)nn12	–	9.4	inactive	–	–	–
COc1ccc(C(=O)Nc2c(Cl)cncc2Cl)c2cc(C(F)F)nn12	32	0.2	inactive	–	–	–
COc1ccc(C(=O)c2ccncc2)c2cc(C(F)(F)F)nn12	–	980	inactive	–	–	–
CC(=O)c1ccc(C(=O)Nc2c(Cl)cncc2Cl)c2cc(C(F)(F)F)nn12	43	21	inactive	–	–	–
COCc1cc2c(C(=O)Nc3c(Cl)cncc3Cl)ccc(OC)n2n1	–	13	inactive	–	54	–
COc1cccc2c(C(=O)Nc3c(Cl)cncc3Cl)c(C(F)(F)F)nn12	–	6130	inactive	–	–	–
COc1ccc(C(=O)C(=O)c2ccncc2)c2cc(C(F)(F)F)nn12	–	1260	inactive	–	–	–
COc1ccc(C(=O)Nc2c(Cl)c[n+]([O-])cc2Cl)c2cc(C3CC3)nn12	–	2.8	inactive	–	62	–
COc1ccc(Cc2ccncc2)c2cc(C(F)(F)F)nn12	–	570	–	> 100000	–	–
COc1ccc(C2=NNC(=O)CC2C)c2cc(C(F)(F)F)nn12 (single isomer, unassigned; (-))	–	–	–	–	79	–
COc1ccc(C(=O)Nc2c(Cl)cncc2Cl)c2cc(C(C)C)nn12	64	110	inactive	–	–	–
COc1ccc(C(=O)Nc2c(Cl)cncc2Cl)c2cc(C(C)O)nn12 (centres undefined)	60	83	inactive	–	–	–
CNc1ccc(C(=O)Nc2c(Cl)cncc2Cl)c2cc(C(F)(F)F)nn12	33	0.19	inactive	–	–	–
COc1ccc(C(=O)Nc2c(Cl)cncc2Cl)c2cc(C(C)=O)nn12	41	2.9	–	> 100000	–	–
COc1ccc(C(O)c2ccncc2)c2cc(C(F)(F)F)nn12 (centres undefined)	–	10200	inactive	–	–	–
CCc1cc2c(C(=O)Nc3c(Cl)c[n+]([O-])cc3Cl)ccc(OC)n2n1	40	9.4	inactive	–	–	–

Reference: ChEMBL document CHEMBL2424518, “Phosphodiesterase inhibitors. Part 6: design, synthesis, and structure-activity relationships of PDE4-inhibitory pyrazolo[1,5-a]pyridines with anti-inflammatory activity” (Bioorg Med Chem Lett, 2013)
